# Measured values: ChEMBL document CHEMBL1158289, “Bioactive amides from Glycosmis species” (J Nat Prod, 1996)
# Tests used:
# Cladosporium herbarum = test: Antifungal activity against Cladosporium herbarum assessed as inhibition of spore germination after 36 hrs by germtube inhibition test; assay type: functional; details: read-out: ED50 (the source's name)
# Spodoptera littoralis [1] = test: Contact toxicity in Spodoptera littoralis neonatal larvae assessed as mortality after 48 hrs; assay type: organism-based; details: in vivo
# Spodoptera littoralis [2] = test: Toxicity in Spodoptera littoralis neonatal larvae assessed as survival rate after 5 days; assay type: organism-based; details: in vivo, 120 h
# Spodoptera littoralis [3] = test: Toxicity in Spodoptera littoralis neonatal larvae assessed as growth inhibition after 5 days; assay type: organism-based
Compound,EC50 (Cladosporium herbarum),LC50 (Spodoptera littoralis [1]),LC50 (Spodoptera littoralis [2]),EC50 (Spodoptera littoralis [3])
CS/C=C/C(=O)N(C)CCc1ccccc1,17.6 µg/mL,0.03 umol/dm'2,4.24 µmol/g,0.47 µmol/g
CNC(=O)/C=C/SC [PENANGIN],> 200 µg/mL,2.84 umol/dm'2,> 10 µmol/g,0.84 µmol/g
CS/C=C/C(=O)N(C)/C=C/c1ccccc1 [METHYLILLUKUMBIN A],5.5 µg/mL,> 6.5 umol/dm'2,> 5 µmol/g,0.94 µmol/g
CSC(=O)N(C)/C=C/c1ccccc1 [DEHYDRONIRANIN A],100 µg/mL,0.18 umol/dm'2,1.64 µmol/g,0.41 µmol/g
CSC(=O)N(C)/C=C\c1ccccc1 [DEHYDRONIRANIN B],8.4 µg/mL,0.02 umol/dm'2,0.96 µmol/g,0.37 µmol/g
CSC(=O)N(C)CCc1ccccc1 [NIRANIN],28 µg/mL,0.03 umol/dm'2,0.81 µmol/g,0.25 µmol/g
CSC(=O)N(C)C(=O)Cc1ccccc1 [RITIGALIN],156 µg/mL,0.05 umol/dm'2,1.34 µmol/g,0.43 µmol/g
